Read-outs that look alike come from different tables or passages of the source.
Tested on: Mycosphaerella graminicola; Anamorph: Septoria tritici; Bayer Code SEPTTR
Test: Leaf blotch of wheat, foliar fungicide treatment, one day protectant (1DP) or three day curative (3DC)
Format: in vivo, Septoria tritici on wheat plants (variety Yuma)
Details: Zymoseptoria tritici; for pest or weed control at 200 ppm / pest or weed control at 50 ppm: % disease control rating
[1] = 24 h, one day protectant (1DP), 25 ppm, rating of percent disease control, read-out: SETTTR 1DP 25 ppm
[2] = 24 h, one day protectant (1DP), rating of percent disease control, read-out: SEPTTR 1DP 100 ppm
[3] = 72 h, three day curative (3DC), 25 ppm, rating of percent disease control, read-out: SEPTTR 3DC 25 ppm
[4] = 72 h, three day curative (3DC), rating of percent disease control, read-out: SEPTTR 3DC 100 ppm
[5] = 24 h, one day protectant (1DP), 25 ppm, percent disease control rating, read-out: SETTTR 1DP 25 ppm
[6] = 24 h, one day protectant (1DP), percent disease control rating, read-out: SEPTTR 1DP 100 ppm
[7] = 72 h, three day curative (3DC), 25 ppm, percent disease control rating, read-out: SEPTTR 3DC 25 ppm
[8] = 72 h, three day curative (3DC), percent disease control rating, read-out: SEPTTR 3DC 100 ppm
[9] = 24 h, one day protectant (1DP), 25 ppm (first 1DP column), percent control rating, read-out: SETTTR 1DP 25 ppm
[10] = 24 h, one day protectant (1DP), 25 ppm as printed (second 1DP column), percent control rating, read-out: SETTTR 1DP 25 ppm
[11] = 72 h, three day curative (3DC), 25 ppm, percent control rating, read-out: SEPTTR 3DC 25 ppm
[12] = 72 h, three day curative (3DC), percent control rating, read-out: SEPTTR 3DC 100 ppm
[13] = 24 h, one day protectant, 25 ppm, rating of percent disease control, read-out: SETTTR 1DP 25 ppm
[14] = 24 h, one day protectant, rating of percent disease control, read-out: SEPTTR 1DP 100 ppm
[15] = 72 h, three day curative, 25 ppm, rating of percent disease control, read-out: SEPTTR 3DC 25 ppm
[16] = 72 h, three day curative, rating of percent disease control, read-out: SEPTTR 3DC 100 ppm

SMILES: N#Cc1cccc(COc2ncc(F)c(NC(=S)Nc3ccccc3F)n2)c1 [Compound 781]
- pest or weed control at 25 ppm [1]: 0 to 25%
- pest or weed control at 100 ppm [2]: 51 to 75%
- pest or weed control at 25 ppm [3]: 0 to 25%
- pest or weed control at 100 ppm [4]: 26 to 50%

SMILES: CCC(C)C(=O)Oc1ncc(F)c(/N=C/N(C)C)n1 (centres unmarked) [Compound 94]
- pest or weed control at 25 ppm [5]: 76 to 100%
- pest or weed control at 100 ppm [6]: 76 to 100%
- pest or weed control at 25 ppm [7]: 76 to 100%
- pest or weed control at 100 ppm [8]: 76 to 100%

SMILES: CNc1nc(OCc2ccc(OC)cc2)ncc1F [Compound 339]
- pest or weed control at 25 ppm [1]: 0 to 25%
- pest or weed control at 100 ppm [2]: 26 to 50%
- pest or weed control at 25 ppm [3]: 26 to 50%
- pest or weed control at 100 ppm [4]: 51 to 75%

SMILES: CNC(=S)Nc1nc(OCc2ccc(C)cc2)ncc1F [Compound 182]
- pest or weed control at 25 ppm [1]: 76 to 100%
- pest or weed control at 100 ppm [2]: 76 to 100%
- pest or weed control at 25 ppm [3]: 76 to 100%
- pest or weed control at 100 ppm [4]: 76 to 100%

SMILES: CCCCCCOc1ncc(F)c(NCO)n1 [Compound 99]
- pest or weed control at 25 ppm [5]: 0 to 25%
- pest or weed control at 100 ppm [6]: 76 to 100%
- pest or weed control at 25 ppm [7]: 0 to 25%
- pest or weed control at 100 ppm [8]: 51 to 75%

SMILES: O=C(NCc1ccccc1F)Nc1nc(OCc2ccccc2)ncc1F [Compound 371]
- pest or weed control at 25 ppm [1]: 0 to 25%
- pest or weed control at 100 ppm [2]: 0 to 25%
- pest or weed control at 25 ppm [3]: 0 to 25%
- pest or weed control at 100 ppm [4]: 0 to 25%

SMILES: COc1ccc(COc2ncc(F)c(NCO)n2)cc1F [Compound 216]
- pest or weed control at 25 ppm [1]: 76 to 100%
- pest or weed control at 100 ppm [2]: 76 to 100%
- pest or weed control at 25 ppm [3]: 51 to 75%
- pest or weed control at 100 ppm [4]: 76 to 100%

SMILES: CS(=O)(=O)Nc1nc(O)ncc1F [Compound 1101]
- pest or weed control at 25 ppm [9]: 0 to 25%
- pest or weed control at 25 ppm [10]: 0 to 25%
- pest or weed control at 25 ppm [11]: 0 to 25%
- pest or weed control at 100 ppm [12]: 0 to 25%

SMILES: Cn1c(COc2ncc(F)c(N)n2)cc2sccc21 [Compound 76]
- pest or weed control at 25 ppm [5]: 26 to 50%
- pest or weed control at 100 ppm [6]: 26 to 50%
- pest or weed control at 25 ppm [7]: 26 to 50%
- pest or weed control at 100 ppm [8]: 26 to 50%

SMILES: COc1ccc(OC)c(COc2ncc(F)c(NSc3ccccc3[N+](=O)[O-])n2)c1 [Compound 680]
- pest or weed control at 25 ppm [13]: 0 to 25%
- pest or weed control at 100 ppm [14]: 0 to 25%
- pest or weed control at 25 ppm [15]: 26 to 50%
- pest or weed control at 100 ppm [16]: 26 to 50%

SMILES: COc1cccc(COc2ncc(F)c(NN)n2)c1 [Compound 44, 5-Fluoro-4-hydrazinyl-2-(3-methoxybenzyloxy)pyrimidine]
- pest or weed control at 25 ppm [5]: 0 to 25%
- pest or weed control at 100 ppm [6]: 76 to 100%
- pest or weed control at 25 ppm [7]: 51 to 75%
- pest or weed control at 100 ppm [8]: 76 to 100%

SMILES: CN(C)/C=N/c1nc(Cl)ncc1F [Compound 252]
- pest or weed control at 25 ppm [1]: 26 to 50%
- pest or weed control at 100 ppm [2]: 26 to 50%
- pest or weed control at 25 ppm [3]: 0 to 25%
- pest or weed control at 100 ppm [4]: 0 to 25%

SMILES: CC(Oc1ncc(F)c(NC(=O)OCc2ccccc2)n1)c1ccc(F)cc1 (centres unmarked) [Compound 771]
- pest or weed control at 25 ppm [1]: 76 to 100%
- pest or weed control at 100 ppm [2]: 76 to 100%
- pest or weed control at 25 ppm [3]: 76 to 100%
- pest or weed control at 100 ppm [4]: 76 to 100%

SMILES: CCOCNc1nc(OCc2cccc(OC)c2)ncc1F [Compound 601]
- pest or weed control at 25 ppm [13]: 76 to 100%
- pest or weed control at 100 ppm [14]: 76 to 100%
- pest or weed control at 25 ppm [15]: 76 to 100%
- pest or weed control at 100 ppm [16]: 76 to 100%

SMILES: COc1ccc(COc2ncc(F)c(NCc3cccs3)n2)cc1 [Compound 906]
- pest or weed control at 200 ppm (24 h, one day protectant): 76 to 100%

SMILES: Nc1nc(OCc2cc(F)c(F)c(F)c2)ncc1F [Compound 93]
- pest or weed control at 25 ppm [5]: 76 to 100%
- pest or weed control at 100 ppm [6]: 76 to 100%
- pest or weed control at 25 ppm [7]: 76 to 100%
- pest or weed control at 100 ppm [8]: 76 to 100%

SMILES: Cc1ccc(COc2ncc(F)c(/N=N/c3ccccc3)n2)cc1 [Compound 992]
- pest or weed control at 25 ppm [9]: 0 to 25%
- pest or weed control at 25 ppm [10]: 0 to 25%
- pest or weed control at 25 ppm [11]: 0 to 25%
- pest or weed control at 100 ppm [12]: 26 to 50%

SMILES: COc1cccc(COc2ncc(F)c(N/N=C\c3nc(C)cs3)n2)c1 [Compound 148]
- pest or weed control at 25 ppm [5]: 51 to 75%
- pest or weed control at 100 ppm [6]: 51 to 75%
- pest or weed control at 25 ppm [7]: 0 to 25%
- pest or weed control at 100 ppm [8]: 0 to 25%

SMILES: Fc1ccccc1COc1ncc(F)c(NC2CC2)n1 [Compound 852]
- pest or weed control at 50 ppm (24 h, one day protectant): 51 to 75%
- pest or weed control at 200 ppm (24 h, one day protectant): 76 to 100%

SMILES: CCOc1ccccc1COc1ncc(F)c(N)n1 [Compound 328]
- pest or weed control at 25 ppm [1]: 76 to 100%
- pest or weed control at 100 ppm [2]: 76 to 100%
- pest or weed control at 25 ppm [3]: 76 to 100%
- pest or weed control at 100 ppm [4]: 76 to 100%

SMILES: CC(=O)Nc1nc(OC(C)c2ccc(F)cc2)ncc1F (centres unmarked) [Compound 714]
- pest or weed control at 25 ppm [13]: 76 to 100%
- pest or weed control at 100 ppm [14]: 76 to 100%
- pest or weed control at 25 ppm [15]: 76 to 100%
- pest or weed control at 100 ppm [16]: 76 to 100%

SMILES: Cc1ccc(CNc2nc(OCc3cccs3)ncc2F)cc1 [Compound 922]
- pest or weed control at 50 ppm (24 h, one day protectant): 51 to 75%
- pest or weed control at 200 ppm (24 h, one day protectant): 26 to 50%

SMILES: COc1ncc(F)c(/N=N/c2c(Cl)cccc2Cl)n1 [Compound 1097]
- pest or weed control at 25 ppm [9]: 0 to 25%
- pest or weed control at 25 ppm [10]: 0 to 25%
- pest or weed control at 25 ppm [11]: 0 to 25%
- pest or weed control at 100 ppm [12]: 26 to 50%

SMILES: Cn1ccc(COc2ncc(F)c(NC(=O)Nc3ccccc3F)n2)n1 [Compound 81]
- pest or weed control at 25 ppm [5]: 0 to 25%
- pest or weed control at 100 ppm [6]: 0 to 25%
- pest or weed control at 25 ppm [7]: 0 to 25%
- pest or weed control at 100 ppm [8]: 0 to 25%

SMILES: Fc1ccccc1CNc1nc(OCc2cc(Cl)cc(Cl)c2)ncc1F [Compound 907]
- pest or weed control at 50 ppm (24 h, one day protectant): 51 to 75%
- pest or weed control at 200 ppm (24 h, one day protectant): 76 to 100%

SMILES: CC(Oc1ncc(F)c(/N=C/N2CCOCC2)n1)c1ccc(F)cc1 (centres unmarked) [Compound 338]
- pest or weed control at 25 ppm [1]: 76 to 100%
- pest or weed control at 100 ppm [2]: 76 to 100%
- pest or weed control at 25 ppm [3]: 76 to 100%
- pest or weed control at 100 ppm [4]: 76 to 100%

SMILES: Cc1cccc(C)c1C(=O)Oc1ncc(F)c(/N=C/N(C)C)n1 [Compound 140]
- pest or weed control at 25 ppm [5]: 76 to 100%
- pest or weed control at 100 ppm [6]: 76 to 100%
- pest or weed control at 25 ppm [7]: 76 to 100%
- pest or weed control at 100 ppm [8]: 76 to 100%

SMILES: Cc1ccccc1COc1ncc(F)c(N)n1 [Compound 733]
- pest or weed control at 25 ppm [13]: 76 to 100%
- pest or weed control at 100 ppm [14]: 76 to 100%
- pest or weed control at 25 ppm [15]: 76 to 100%
- pest or weed control at 100 ppm [16]: 76 to 100%

SMILES: Cc1ccc(COc2ncc(F)c(NCc3ccc(Cl)cc3)n2)cc1 [Compound 892]
- pest or weed control at 50 ppm (24 h, one day protectant): 51 to 75%
- pest or weed control at 200 ppm (24 h, one day protectant): 76 to 100%

SMILES: O=C(Nc1ccsc1)Nc1nc(OCCNc2ccccc2)ncc1F [Compound 529]
- pest or weed control at 25 ppm [1]: 0 to 25%
- pest or weed control at 100 ppm [2]: 0 to 25%
- pest or weed control at 25 ppm [3]: 0 to 25%
- pest or weed control at 100 ppm [4]: 0 to 25%

SMILES: CCCCCC(CC)Oc1ncc(F)c(N)n1 (centres unmarked) [Compound 740]
- pest or weed control at 25 ppm [1]: 0 to 25%
- pest or weed control at 100 ppm [2]: 0 to 25%

SMILES: NN(Cc1ccccc1)c1nc(OCc2ccc(F)cc2)ncc1F [Compound 380]
- pest or weed control at 25 ppm [1]: 76 to 100%
- pest or weed control at 100 ppm [2]: 76 to 100%
- pest or weed control at 25 ppm [3]: 0 to 25%
- pest or weed control at 100 ppm [4]: 76 to 100%

SMILES: Nc1nc(ON=C(c2ccccc2)c2ccccc2)ncc1F [Compound 312]
- pest or weed control at 25 ppm [1]: 76 to 100%
- pest or weed control at 100 ppm [2]: 76 to 100%
- pest or weed control at 25 ppm [3]: 76 to 100%
- pest or weed control at 100 ppm [4]: 76 to 100%

SMILES: C#CCOc1ncc(F)c(N)n1 [Compound 746]
- pest or weed control at 25 ppm [1]: 0 to 25%
- pest or weed control at 100 ppm [2]: 0 to 25%
- pest or weed control at 25 ppm [3]: 0 to 25%
- pest or weed control at 100 ppm [4]: 76 to 100%

SMILES: Cc1ccc(C(=O)Oc2ncc(F)c(/N=C/N(C)C)n2)c(C)c1 [Compound 422]
- pest or weed control at 25 ppm [1]: 76 to 100%
- pest or weed control at 100 ppm [2]: 76 to 100%
- pest or weed control at 25 ppm [3]: 76 to 100%
- pest or weed control at 100 ppm [4]: 76 to 100%

SMILES: CCCCOc1ccc(COc2ncc(F)c(N)n2)cc1 [Compound 537]
- pest or weed control at 25 ppm [1]: 76 to 100%
- pest or weed control at 100 ppm [2]: 76 to 100%
- pest or weed control at 25 ppm [3]: 76 to 100%
- pest or weed control at 100 ppm [4]: 76 to 100%

Reference: patent publication US9204653B2, “5-fluoro pyrimidine derivatives” (DOW AGROSCIENCES LLC, priority 2008, dated 2015)
